Results published in US7160890B2, “Compounds specific to adenosine A3 receptor and uses thereof” (OSI Pharmaceuticals, Inc., priority 1999, dated 2007).

Assays:
[1] = molecular target: human A1 adenosine receptor (Homo sapiens, UniProt P30542); conditions: cited from earlier work
[2] = molecular target: T1, human A2a receptor subtype (Homo sapiens, UniProt P29274); experiment: Adenosine 2a receptor subtype competition radioligand binding, [3H]CGS-21680, HEK293 membranes; conditions: Table 13, concentration not given
T1 construct: expressed in transfected cells; host or cells: HEK-293 (Cadus clone #5)
T1 sequence (P29274 whole entry): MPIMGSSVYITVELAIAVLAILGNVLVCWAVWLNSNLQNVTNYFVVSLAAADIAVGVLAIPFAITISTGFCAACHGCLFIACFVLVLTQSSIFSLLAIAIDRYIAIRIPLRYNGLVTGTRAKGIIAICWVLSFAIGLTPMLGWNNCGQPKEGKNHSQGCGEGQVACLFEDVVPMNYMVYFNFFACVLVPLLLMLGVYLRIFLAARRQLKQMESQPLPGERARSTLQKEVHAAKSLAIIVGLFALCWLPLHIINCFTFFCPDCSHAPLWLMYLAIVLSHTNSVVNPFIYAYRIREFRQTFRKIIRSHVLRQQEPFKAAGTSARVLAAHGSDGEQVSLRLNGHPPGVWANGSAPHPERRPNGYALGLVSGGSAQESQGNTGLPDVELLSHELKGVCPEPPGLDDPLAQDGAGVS

[3] = molecular target: T2, human A1 receptor subtype (Homo sapiens, UniProt P30542); conditions: Table 13, concentration not given
T2 sequence (P30542 1-326): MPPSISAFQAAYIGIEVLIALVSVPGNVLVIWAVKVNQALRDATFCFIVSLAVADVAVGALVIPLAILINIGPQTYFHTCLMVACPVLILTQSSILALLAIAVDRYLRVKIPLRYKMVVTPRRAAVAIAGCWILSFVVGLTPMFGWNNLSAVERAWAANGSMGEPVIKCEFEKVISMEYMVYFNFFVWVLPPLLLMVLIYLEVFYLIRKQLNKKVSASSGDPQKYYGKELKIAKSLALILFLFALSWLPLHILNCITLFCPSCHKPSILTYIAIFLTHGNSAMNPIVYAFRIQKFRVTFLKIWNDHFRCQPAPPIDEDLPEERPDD

[4] = molecular target: T3, human A3 receptor subtype (Homo sapiens, UniProt P0DMS8); experiment: Adenosine 3 receptor competition radioligand binding, [125I]AB-MECA, HEK293 membranes; conditions: compared with compound 1308
T3 construct: expressed in transfected cells; host or cells: HEK293
T3 sequence (P0DMS8 1-318): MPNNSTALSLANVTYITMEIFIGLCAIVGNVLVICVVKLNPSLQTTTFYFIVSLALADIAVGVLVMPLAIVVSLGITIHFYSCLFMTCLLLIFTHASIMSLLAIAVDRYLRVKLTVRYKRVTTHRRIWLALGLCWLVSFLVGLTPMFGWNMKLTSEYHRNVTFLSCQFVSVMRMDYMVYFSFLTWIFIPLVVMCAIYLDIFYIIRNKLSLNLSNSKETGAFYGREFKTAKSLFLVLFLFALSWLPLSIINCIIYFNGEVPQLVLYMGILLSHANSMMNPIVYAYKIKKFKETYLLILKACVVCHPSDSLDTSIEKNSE

Which reported affinity [1] does the source give for `CC(Cc1ccccc1)Nc1ncnc2c1ncn2[C@@H]1O[C@H](CO)[C@@H](O)[C@H]1O` (single isomer, unassigned; (-)) [PIA, (−)-N6-(2-phenylisopropyl)-adenosine] here?
The reported affinity was “approximately 50 nM”.

Which “Binding A2a, value given in %” value [2] does the source give for `CNC(=O)NCCCNc1nc(-c2ccccc2)nc2[nH]c(C)c(C)c12` [Compound 1310] here?
The value was 76%.

Which “Binding A1, value printed in %” value [3] does the source give for `Cc1[nH]c2nc(-c3ccccc3)nc(NCCNC(=O)C3(N)CC3)c2c1C` [Compound 1313] here?
Its value is 30%.

Which melting point does the source give for `c1ccc(-c2nc(NCCc3cnc[nH]3)c3cc[nH]c3n2)cc1` [Compound 1720, [2-(3H-Imidazol-4-yl)-ethyl]-(2-phenyl-7H-pyrrolo[2,3-d]pyrimidin-4-yl)-amine] here?
The melting point was 234 to 235 °C.

What about the “A3 receptor binding affinity relative to reference compound 1308” value [4] of the same molecule?
Its value is “greater than 10 times”.
